Reference: the supplement of paper PMC4862054

Legend:
Conditions in all cases: incubation time: 72 h
[1] = tested on: DU-4475; assay: normalised viability (% of control), CellTiter-Blue; higher = more viable cells (about 100 = DMSO control)
Outline: (§1)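 Normalised viability is given for a single listed concentration of the series. In 384-well plates, breast cancer cell lines were incubated 72 h with compound, then read with CellTiter-Blue (2 h, 37 °C) at 560/590 nm. Per-plate scaling set vehicle to 100 and a positive kill control to 0, with Z'-factor quality control.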

[2] = tested on: HCC1937; assay: as above
Outline: as §1

[3] = tested on: BT-474; assay: drug sensitivity score (DSS), CellTiter-Blue viability (DSS (AUC-based score)); higher = stronger viability inhibition; extreme values may be limits of the assay
Procedure: (§2)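 DSRT with the CellTiter-Blue (resazurin reduction) viability readout, fluorescence 560/590 nm, 72 h incubation. Plates were normalised to DMSO and benzethonium chloride controls. DSS is computed from the area under the fitted dose-response curve (5 or 9 concentrations).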

[4] = tested on: BT-549; assay: as above
Procedure: as §2

[5] = tested on: CAL-120; assay: as above
Procedure: as §2

[6] = tested on: CAL-148; assay: as above
Procedure: as §2

[7] = tested on: CAL-51; assay: as above
Procedure: as §2

[8] = tested on: CAL-85-1; assay: as above
Procedure: as §2

[9] = tested on: DU-4475; assay: as above
Procedure: as §2

[10] = tested on: HCC1143; assay: as above
Procedure: as §2

[11] = tested on: HCC1599; assay: as above
Procedure: as §2

[12] = tested on: HCC1937; assay: as above
Procedure: as §2

[13] = tested on: HDQ-P1; assay: as above
Procedure: as §2

[14] = tested on: Hs578T; assay: as above
Procedure: as §2

[15] = tested on: MDA-MB-231; assay: as above
Procedure: as §2

[16] = tested on: MDA-MB-436; assay: as above
Procedure: as §2

[17] = tested on: MDA-MB-453; assay: as above
Procedure: as §2

[18] = tested on: MDA-MB-468; assay: as above
Procedure: as §2

[19] = tested on: MFM-223; assay: as above
Procedure: as §2

[20] = tested on: SK-BR-3; assay: as above
Procedure: as §2

[21] = tested on: BT-549; assay: drug sensitivity score (DSS), CellTox Green (DSS (AUC-based score)); higher = stronger drug effect (viability inhibition or cytotoxicity); extreme values may be limits of the assay
Outline: (§3)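 Breast cancer cell lines (20 µl suspension) were seeded into 384-well plates holding compound at 5 concentrations in 10-fold steps over a compound-specific 10,000-fold range, then incubated 72 h. CellTox Green fluorescence (485/520 nm) was read first, then CellTiter-Glo luminescence after 10 min at room temperature. Each plate was normalised to 0.1 % DMSO and a positive kill control. The drug sensitivity score was calculated from the area under the fitted dose-response curve.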

[22] = tested on: CAL-148; assay: as above
Outline: as §3

[23] = tested on: HDQ-P1; assay: as above
Outline: as §3

[24] = tested on: MFM-223; assay: as above
Outline: as §3

| SMILES | drug sensitivity score [3] | drug sensitivity score [4] | drug sensitivity score [5] | drug sensitivity score [6] | drug sensitivity score [7] | drug sensitivity score [8] | drug sensitivity score [9] | drug sensitivity score [10] | drug sensitivity score [11] | drug sensitivity score [12] | drug sensitivity score [13] | drug sensitivity score [14] | drug sensitivity score [15] | drug sensitivity score [16] | drug sensitivity score [17] | drug sensitivity score [18] | drug sensitivity score [19] | drug sensitivity score [20] | drug sensitivity score [21] | drug sensitivity score [22] | also measured |
| --- | --- | --- | --- | --- | --- | --- | --- | --- | --- | --- | --- | --- | --- | --- | --- | --- | --- | --- | --- | --- | --- |
| O=P1(N(CCCl)CCCl)NCCCO1 (stereo unspecified) [Cyclophosphamide] | 0 | 0 | 0 | 0 | 0 | 0 | 0 | 0 | 0 | 0 | 0 | 0 | 0 | 0.105 | 0 | 0 | 0 | 0 | 0 | 0 | normalised viability ([1]; 12 nM): 110%; normalised viability ([1]; 120 nM): 90.9%; normalised viability ([1]; 400 nM): 113%; normalised viability ([2]; 40 nM): 98.3%; normalised viability ([2]; 4000 nM): 111%; normalised viability ([2]; 40000 nM): 98.5%; drug sensitivity score [23]: 0; drug sensitivity score [24]: 0 |
| C=C1C[C@@H]2[C@H](CC[C@]3(C)C(=O)CC[C@@H]23)[C@@]2(C)C=CC(=O)C=C12 [Exemestane] | 0 | 0 | 0 | 0 | 0 | 0 | 0 | 0 | 0 | 0 | 0 | 0 | 0 | 0 | 1.5 | 0 | 0 | 0 | 0 | 0 | normalised viability ([1]; 3 nM): 95.1%; normalised viability ([1]; 30 nM): 98%; normalised viability ([1]; 100 nM): 79.4%; normalised viability ([2]; 10 nM): 87.7%; normalised viability ([2]; 1000 nM): 88.3%; normalised viability ([2]; 10000 nM): 87.8%; drug sensitivity score [23]: 3.28; drug sensitivity score [24]: 0 |
| O=C(Nc1ccncc1)C(=O)c1cn(Cc2ccc(Cl)cc2)c2ccccc12 [Indibulin] | 18.3 | 16.6 | 22.2 | 2.12 | 10.8 | 11.8 | 7.93 | 16.4 | 0 | 25.9 | 12.5 | 11.3 | 20.7 | 8.9 | 18 | 15.3 | 5.75 | 25.9 | 0 | 0 | normalised viability ([1]; 3 nM): 111%; normalised viability ([1]; 30 nM): 93.7%; normalised viability ([1]; 100 nM): 123%; normalised viability ([2]; 10 nM): 74.5%; normalised viability ([2]; 1000 nM): 21.1%; normalised viability ([2]; 10000 nM): 23.1%; drug sensitivity score [23]: 0; drug sensitivity score [24]: 4.4 |
| NC(=O)c1ccc(I)c([N+](=O)[O-])c1 [Iniparib] | 0 | 0 | 1.19 | 0 | 0 | 0 | 0 | 0 | 0 | 0 | 0 | 0 | 0 | 0 | 0 | 0 | 0 | 0 | 0 | 0 | normalised viability ([1]; 3 nM): 84.1%; normalised viability ([1]; 30 nM): 73.9%; normalised viability ([1]; 100 nM): 98.8%; normalised viability ([2]; 10 nM): 86%; normalised viability ([2]; 1000 nM): 97.4%; normalised viability ([2]; 10000 nM): 97.6%; drug sensitivity score [23]: 1.99; drug sensitivity score [24]: 0 |
| Oc1ccc2c(c1)CC[C@H](c1ccccc1)[C@@H]2c1ccc(OCCN2CCCC2)cc1 [Lasofoxifene] | 0 | 0 | 0 | 0 | 0 | 0 | 0 | 0 | 0 | 0 | 0 | 0 | 0 | 0 | 0 | 0 | 0 | 0 | 0 | 0 | normalised viability ([1]; 0.3 nM): 93.6%; normalised viability ([1]; 3 nM): 91.9%; normalised viability ([1]; 10 nM): 88.8%; normalised viability ([2]; 1 nM): 88.6%; normalised viability ([2]; 100 nM): 109%; normalised viability ([2]; 1000 nM): 121%; drug sensitivity score [23]: 0; drug sensitivity score [24]: 0 |
| Cc1ccc(NC(=O)c2ccc(CN3CCN(C)CC3)cc2)cc1Nc1nc(-c2cccnc2)cs1 [Masitinib] | 0 | 0 | 0 | 0 | 0 | 0 | 0 | 0 | 0 | 0 | 0 | 0 | 0 | 0.552 | 4.09 | 0 | 0 | 2.27 | 0 | 0 | normalised viability ([1]; 3 nM): 109%; normalised viability ([1]; 30 nM): 91.4%; normalised viability ([1]; 100 nM): 95.5%; normalised viability ([2]; 10 nM): 97.3%; normalised viability ([2]; 1000 nM): 99.5%; normalised viability ([2]; 10000 nM): 84.8%; drug sensitivity score [23]: 0; drug sensitivity score [24]: 0 |
| Cc1[nH]c2ccccc2c1CCNCc1ccc(/C=C/C(=O)NO)cc1 [Panobinostat] | 17.5 | 9.07 | 22.2 | 22.1 | 15 | 18.2 | 20 | 16.3 | 16.1 | 17.9 | 14 | 17.6 | 16.5 | 9.42 | 27.8 | 11.3 | 14.6 | 23 | 0 | 20.9 | normalised viability ([1]; 0.3 nM): 112%; normalised viability ([1]; 3 nM): 92.4%; normalised viability ([1]; 10 nM): 81.6%; normalised viability ([2]; 1 nM): 110%; normalised viability ([2]; 100 nM): 26.2%; normalised viability ([2]; 1000 nM): 15.1%; drug sensitivity score [23]: 3.86; drug sensitivity score [24]: 6.53 |
| COCC1(CO)C(=O)C2CCN1CC2 (stereo unspecified) [Prima-1 Met] | 2.5 | 0 | 0 | 0 | 0 | 0 | 0 | 0 | 0 | 3.72 | 0 | 0.00378 | 0 | 0 | 0 | 0 | 0 | 0 | 0 | 0 | normalised viability ([1]; 3 nM): 109%; normalised viability ([1]; 30 nM): 88.4%; normalised viability ([1]; 100 nM): 122%; normalised viability ([2]; 10 nM): 97.8%; normalised viability ([2]; 1000 nM): 73.8%; normalised viability ([2]; 10000 nM): 75.4%; drug sensitivity score [23]: 0; drug sensitivity score [24]: 0 |
| CNC(=O)c1cc(Oc2ccc(NC(=O)Nc3ccc(Cl)c(C(F)(F)F)c3)c(F)c2)ccn1 [Regorafenib] | 1.39 | 1.64 | 1.05 | 0 | 3.37 | 0 | 3.68 | 9.31 | 1.06 | 3.4 | 0 | 2.98 | 8.54 | 0 | 5.4 | 1.71 | 9.2 | 0 | 0 | 0 | normalised viability ([1]; 3 nM): 114%; normalised viability ([1]; 30 nM): 100%; normalised viability ([1]; 100 nM): 120%; normalised viability ([2]; 10 nM): 94.9%; normalised viability ([2]; 1000 nM): 90.3%; normalised viability ([2]; 10000 nM): 35.1%; drug sensitivity score [23]: 0; drug sensitivity score [24]: 0 |
| CO[C@H]1C[C@@H]2CC[C@@H](C)[C@@](O)(O2)C(=O)C(=O)N2CCCC[C@H]2C(=O)O[C@H]([C@H](C)C[C@@H]2CC[C@@H](OP(C)(C)=O)[C@H](OC)C2)CC(=O)[C@H](C)/C=C(\C)[C@@H](O)[C@@H](OC)C(=O)[C@H](C)C[C@H](C)/C=C/C=C/C=C/1C [Ridaforolimus] | 14.5 | 17.6 | 19.1 | 25 | 22 | 16 | 16.7 | 16.3 | 0 | 17.2 | 7.08 | 19.1 | 2.74 | 1.25 | 29.9 | 16.7 | 22.1 | 16.8 | 0 | 0 | normalised viability ([1]; 0.3 nM): 100%; normalised viability ([1]; 3 nM): 61.7%; normalised viability ([1]; 10 nM): 57.9%; normalised viability ([2]; 1 nM): 52.4%; normalised viability ([2]; 100 nM): 62.5%; normalised viability ([2]; 1000 nM): 69.5%; drug sensitivity score [23]: 12.6; drug sensitivity score [24]: 0 |
| c1ccc2c(CCNc3ccc(Nc4ccncc4)cc3)c[nH]c2c1 [Serdemetan] | 0 | 6.96 | 0 | 4.36 | 1.53 | 0 | 3.86 | 0 | 1.87 | 0 | 0 | 2.84 | 0 | 8.76 | 3.89 | 0 | 0 | 0 | 0 | 6.44 | normalised viability ([1]; 3 nM): 93.1%; normalised viability ([1]; 30 nM): 88.3%; normalised viability ([1]; 100 nM): 89.6%; normalised viability ([2]; 10 nM): 91.2%; normalised viability ([2]; 1000 nM): 94.3%; normalised viability ([2]; 10000 nM): 51.4%; drug sensitivity score [23]: 0; drug sensitivity score [24]: 1.92 |
| S=P(N1CC1)(N1CC1)N1CC1 [Thio-TEPA] | 0 | 0 | 0 | 0 | 0 | 0 | 0 | 0 | 0 | 0 | 0 | 0 | 3.37 | 0 | 0 | 0 | 0 | 0 | 0 | 0 | normalised viability ([1]; 30 nM): 97.2%; normalised viability ([1]; 300 nM): 98.7%; normalised viability ([1]; 1000 nM): 91.8%; normalised viability ([2]; 100 nM): 102%; normalised viability ([2]; 10000 nM): 93.4%; normalised viability ([2]; 100000 nM): 83.6%; drug sensitivity score [23]: 0; drug sensitivity score [24]: 0 |
